The source of these data is the Kinase Knowledgebase extract (Sharma et al. 2016).

This experiment has as its target MAPK14 (human) (UniProt Q16539). Put plainly: Inhibition of LPS Stimulated TNF Production by U937 Cells. The settings on record: for inhibition: concentration not given here.

Chain of MAPK14 (human) (Q16539 whole entry, looked up): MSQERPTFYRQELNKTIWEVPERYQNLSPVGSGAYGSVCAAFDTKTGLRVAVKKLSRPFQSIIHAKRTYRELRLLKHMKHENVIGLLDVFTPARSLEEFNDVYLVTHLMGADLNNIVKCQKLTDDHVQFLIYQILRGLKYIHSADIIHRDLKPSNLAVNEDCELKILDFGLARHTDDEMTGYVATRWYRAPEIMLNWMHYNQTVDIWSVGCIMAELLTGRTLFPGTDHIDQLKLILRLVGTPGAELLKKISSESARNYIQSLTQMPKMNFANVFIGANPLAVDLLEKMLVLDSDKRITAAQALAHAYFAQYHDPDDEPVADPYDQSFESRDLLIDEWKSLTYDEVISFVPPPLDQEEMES

Broadly, the IC50 is the concentration at which inhibition is half-maximal. Low values mean inhibition by little substance, high ones a need for much substance. `CC(C)=CC(=O)NCc1[nH]nc(-c2ccc(F)cc2)c1-c1ccncc1` registered a half-inhibitory concentration (IC50) of 11000 nM.

The term inhibition denotes the drop in the measured response relative to a control, in per cent. A high value points to strong suppression. With `COc1cccc(CC(=O)N[C@H](C)c2[nH]nc(-c3ccc(F)cc3)c2-c2ccncc2)c1`, the inhibition is 18%. Same read-out and setting: the result for `CCS(=O)(=O)N[C@H](C)c1[nH]nc(-c2ccc(F)cc2)c1-c1ccncc1` reads 48%; that for `COC(=O)NCc1[nH]nc(-c2ccc(F)cc2)c1-c1ccncc1`, 52%; that for `Cn1cnc(S(=O)(=O)N2CCC(c3[nH]nc(-c4ccc(F)cc4)c3-c3ccncc3)CC2)c1`, 28%. Same read-out and setting: under `CNC(=O)CC[C@H](NC(=O)Nc1c(C)cccc1C)c1[nH]nc(-c2ccc(F)cc2)c1-c1ccncc1` stands 9%. Compound `C[C@H](NC(=O)c1ccc(F)cc1C(F)(F)F)c1[nH]nc(-c2ccc(F)cc2)c1-c1ccncc1` displayed an inhibition of 58%. On the same count and under the same terms, the result for `CCOC(=O)NCc1[nH]nc(-c2ccc(F)cc2)c1-c1ccncc1` reads 48%; that for `C[C@@H](NC(=O)Nc1cccc(F)c1)c1[nH]nc(-c2ccc(F)cc2)c1-c1ccncc1`, 27%. Same read-out and setting: under `C[C@H](NS(=O)(=O)c1cccc2cccnc12)c1[nH]nc(-c2ccc(F)cc2)c1-c1ccncc1` stands 58%; under `COc1ccc(Br)cc1S(=O)(=O)N1CCC(c2[nH]nc(-c3ccc(F)cc3)c2-c2ccncc2)CC1`, 36%.

With `O=C(NCc1[nH]nc(-c2ccc(F)cc2)c1-c1ccncc1)c1ccc(F)c(F)c1F`, the IC50 stood at 3270 nM.

`C[C@@H](NC(=O)c1ccc(F)cc1F)c1[nH]nc(-c2ccc(F)cc2)c1-c1ccncc1` showed an inhibition of 77%.

Regarding `C[C@H](NC(=O)c1ccc(Cl)cc1Cl)c1[nH]nc(-c2ccc(F)cc2)c1-c1ccncc1`, the inhibition was found to be 28%. `C#CCn1cc(-c2ccncc2)c(-c2ccc(F)cc2)n1` gave an IC50 of 500 nM. Same read-out and setting: under `Cc1n[nH]c(-c2ccc(N(C)C)cc2)c1-c1ccncc1` stands 99 nM; under `Cc1n[nH]c(-c2cccc(Cl)c2)c1-c1ccncc1`, 74 nM; under `OCCn1cc(-c2ccncc2)c(-c2ccc(F)cc2)n1`, 198 nM. For the compound `Cc1cccc(S(=O)(=O)N2CCC(c3[nH]nc(-c4ccc(F)cc4)c3-c3ccncc3)CC2)c1`, the inhibition came to 1%. As to `Fc1ccc(CNc2cc(-c3cnn(CCN4CCOCC4)c3-c3ccc(F)cc3)ccn2)cc1`, the IC50 came to 450 nM. That is a sub-micromolar value. In turn, `Cc1c(-c2ccncc2)c(-c2ccc(F)cc2)nn1CC(=O)NCCc1cccs1` displayed an inhibition of 36%. On the same count and under the same terms, under `O=C(NCc1[nH]nc(-c2ccc(F)cc2)c1-c1ccncc1)[C@H]1CCCN1C(=O)OCC1c2ccccc2-c2ccccc21` stands 14%; under `O=S(=O)(NCc1[nH]nc(-c2ccc(F)cc2)c1-c1ccncc1)c1ccc(C(F)(F)F)cc1`, 60%.

With `CNC(=O)CC[C@H](NC(=O)c1ccccc1OC)c1[nH]nc(-c2ccc(F)cc2)c1-c1ccncc1`, the concentration for half-maximal inhibition (IC50) was > 1000 nM. Take `O=C(NCCc1[nH]nc(-c2ccc(F)cc2)c1-c1ccncc1)c1ccc(C(F)(F)F)cc1`: the inhibition was 30%. On the same count and under the same terms, the result for `CNC(=O)NCc1[nH]nc(-c2ccc(F)cc2)c1-c1ccncc1` reads 30%; that for `C[C@@H](NS(=O)(=O)c1cccc(C(F)(F)F)c1)c1[nH]nc(-c2ccc(F)cc2)c1-c1ccncc1`, 97%. Still for that read-out and setting: under `C[C@H](NC(=O)c1cccc(F)c1)c1[nH]nc(-c2ccc(F)cc2)c1-c1ccncc1` stands 21%; under `O=C(NCc1[nH]nc(-c2ccc(F)cc2)c1-c1ccncc1)c1ccccn1`, 2%. Still for that read-out and setting: the result for `CCc1ccc(S(=O)(=O)N[C@H](C)c2[nH]nc(-c3ccc(F)cc3)c2-c2ccncc2)cc1` reads 92%.

On to `C[C@H](NS(=O)(=O)c1cn(C)cn1)c1[nH]nc(-c2ccc(F)cc2)c1-c1ccncc1`, for which the inhibition stood at 74%. Still for that read-out and setting: the result for `C[C@@H](NC(=O)c1cccc(C(F)(F)F)c1)c1[nH]nc(-c2ccc(F)cc2)c1-c1ccncc1` reads 25%; that for `O=S(=O)(NCc1[nH]nc(-c2ccc(F)cc2)c1-c1ccncc1)c1ccccc1C(F)(F)F`, 46%.

For the compound `C[C@H](NC(=O)N[C@H](C)c1ccccc1)c1[nH]nc(-c2ccc(F)cc2)c1-c1ccncc1`, the inhibition was determined as 41%.

Compound `O=S(=O)(c1ccc(F)cc1)N1CCC(c2[nH]nc(-c3ccc(F)cc3)c2-c2ccncc2)CC1` showed an inhibition of 28%.

`COc1ccc(S(=O)(=O)NCc2[nH]nc(-c3ccc(F)cc3)c2-c2ccncc2)c([N+](=O)[O-])c1` registered an inhibition of 10%.

`O=C(NCc1[nH]nc(-c2ccc(F)cc2)c1-c1ccncc1)c1sc2ccccc2c1Cl` registered an inhibition of 18%. `Cc1ccc(S(=O)(=O)NCc2[nH]nc(-c3ccc(F)cc3)c2-c2ccncc2)cc1`: the concentration for half-maximal inhibition (IC50) came out at 1290 nM. This counts as single-digit micromolar.

The compound `CCOC(=O)c1cccc(NC(=O)NCc2[nH]nc(-c3ccc(F)cc3)c2-c2ccncc2)c1` had an inhibition of 14%. Same read-out and setting: under `C[C@H](NC(=O)c1cccc(C#N)c1)c1[nH]nc(-c2ccc(F)cc2)c1-c1ccncc1` stands 22%; under `COc1cccc(CC(=O)N[C@@H](C)c2[nH]nc(-c3ccc(F)cc3)c2-c2ccncc2)c1`, 14%. Still for that read-out and setting: the result for `C[C@H](NC(=O)c1cccc(C(F)(F)F)c1F)c1[nH]nc(-c2ccc(F)cc2)c1-c1ccncc1` reads 15%; that for `C[C@H](NS(=O)(=O)c1cc(Cl)c(Cl)s1)c1[nH]nc(-c2ccc(F)cc2)c1-c1ccncc1`, 79%; that for `O=C(NCc1[nH]nc(-c2ccc(F)cc2)c1-c1ccncc1)c1cccc(C(F)(F)F)c1F`, 29%. On the same count and under the same terms, under `C[C@H](NS(=O)(=O)c1cccc2nonc12)c1[nH]nc(-c2ccc(F)cc2)c1-c1ccncc1` stands 78%; under `O=S(=O)(c1ccc(C(F)(F)F)cc1)N1CCC(c2[nH]nc(-c3ccc(F)cc3)c2-c2ccncc2)CC1`, 31%; under `C[C@H](NS(=O)(=O)c1c(Cl)cccc1Cl)c1[nH]nc(-c2ccc(F)cc2)c1-c1ccncc1`, 77%.

As to `CNC(=O)CC[C@H](NC(=O)C(C)C)c1[nH]nc(-c2ccc(F)cc2)c1-c1ccncc1`, the inhibition was 25%. Same read-out and setting: under `COc1ccc(NC(=O)N[C@H](C)c2[nH]nc(-c3ccc(F)cc3)c2-c2ccncc2)c(OC)c1` stands 40%; under `NC(=O)N[C@@H](Cc1ccccc1)c1[nH]nc(-c2ccc(F)cc2)c1-c1ccncc1`, 17%; under `C[C@H](NC(=O)c1cccc(Cl)c1Cl)c1[nH]nc(-c2ccc(F)cc2)c1-c1ccncc1`, 17%. Still for that read-out and setting: under `CC(=O)OC(C)(C)C(=O)N[C@H](C)c1[nH]nc(-c2ccc(F)cc2)c1-c1ccncc1` stands 17%. In turn, `CCOc1ccc(-c2[nH]nc(C)c2-c2ccncc2)cc1` gave an IC50 of 2360 nM.

Compound `COc1cccc(-c2[nH]nc(C)c2-c2ccncc2)c1` had an IC50 of 477 nM. This IC50 is about 4.9-fold lower than that of the compound before.

`C[C@H](NS(=O)(=O)c1ccc(S(=O)(=O)c2ccccc2)s1)c1[nH]nc(-c2ccc(F)cc2)c1-c1ccncc1`: the inhibition came to 72%. Compound `CC(=O)O[C@@H](C)C(=O)NCc1[nH]nc(-c2ccc(F)cc2)c1-c1ccncc1` returned an IC50 of 6510 nM.

On to `Cc1ccc(-c2n[nH]c(C)c2-c2ccncc2)cc1`, for which the 50% inhibitory concentration (IC50) came to 274 nM. This IC50 lies about 24-fold lower than the previous one.

With `O=C(NCc1[nH]nc(-c2ccc(F)cc2)c1-c1ccncc1)c1cccc(C(F)(F)F)c1`, the inhibition turned out to be 13%.

`O=C(NCc1[nH]nc(-c2ccc(F)cc2)c1-c1ccncc1)c1c(F)cccc1C(F)(F)F`: the inhibition worked out at 65%. The same measure, in the same setting: under `O=S(=O)(c1cccc(C(F)(F)F)c1)N1CCC(c2[nH]nc(-c3ccc(F)cc3)c2-c2ccncc2)CC1` stands 10%; under `C[C@@H](NC(=O)N(C)C)c1[nH]nc(-c2ccc(F)cc2)c1-c1ccncc1`, 27%. For the compound `COc1ccc(S(=O)(=O)NCc2[nH]nc(-c3ccc(F)cc3)c2-c2ccncc2)cc1`, the half-maximal inhibitory concentration (IC50) amounted to 1780 nM. `Cc1cccc(C)c1NC(=O)N[C@@H](C)c1[nH]nc(-c2ccc(F)cc2)c1-c1ccncc1`: the inhibition was found to be 42%. For the compound `O=C(c1ccccc1F)N1CCC(c2[nH]nc(-c3ccc(F)cc3)c2-c2ccncc2)CC1`, the concentration for half-maximal inhibition (IC50) is 410 nM.

As for `COc1cccc(CC(=O)N2CCC(c3[nH]nc(-c4ccc(F)cc4)c3-c3ccncc3)CC2)c1`, the half-maximal inhibitory concentration (IC50) was 770 nM. In turn, `C[C@H](NC(=O)NCCc1ccccc1)c1[nH]nc(-c2ccc(F)cc2)c1-c1ccncc1` displayed an inhibition of 36%.

As for `C[C@H](NS(=O)(=O)c1cc(Cl)cc(Cl)c1)c1[nH]nc(-c2ccc(F)cc2)c1-c1ccncc1`, the inhibition is 65%. As to `OCCn1cc(-c2ccnc(/C=C/c3ccc(F)cc3)c2)c(-c2ccc(F)cc2)n1`, the concentration for half-maximal inhibition (IC50) stood at 347 nM. With `Cc1cc(C)c(S(=O)(=O)N[C@@H](C)c2[nH]nc(-c3ccc(F)cc3)c2-c2ccncc2)c(C)c1`, the inhibition is 87%. On to `Fc1ccc(-c2[nH]nc(NCCCN3CCOCC3)c2-c2ccncc2)cc1`, for which the 50% inhibitory concentration (IC50) came to 90 nM. That is a double-digit nanomolar value. Still for that read-out and setting: under `O=S(=O)(NCc1[nH]nc(-c2ccc(F)cc2)c1-c1ccncc1)c1ccc(F)cc1` stands 2780 nM.

In turn, `Cn1cnc(S(=O)(=O)NCc2[nH]nc(-c3ccc(F)cc3)c2-c2ccncc2)c1` had an inhibition of 24%. Same read-out and setting: under `Cc1c(Cl)cccc1S(=O)(=O)N[C@H](C)c1[nH]nc(-c2ccc(F)cc2)c1-c1ccncc1` stands 71%. The compound `O=S(=O)(c1ccccc1F)N1CCC(c2[nH]nc(-c3ccc(F)cc3)c2-c2ccncc2)CC1` had an IC50 of 5000 nM. In turn, `CC(=O)O[C@@H](C)C(=O)N[C@H](C)c1[nH]nc(-c2ccc(F)cc2)c1-c1ccncc1` yielded an inhibition of 27%. As to `Cc1onc(-c2ccccc2Cl)c1C(=O)NCc1[nH]nc(-c2ccc(F)cc2)c1-c1ccncc1`, the inhibition was 21%. As to `N#Cc1cc(-c2c[nH]nc2-c2ccc(F)cc2)ccn1`, the half-maximal inhibitory concentration (IC50) was 298 nM. This lies in the sub-micromolar range. The compound `O=S(=O)(NCc1[nH]nc(-c2ccc(F)cc2)c1-c1ccncc1)c1ccccc1Br` registered an inhibition of 68%. For `C[C@H](NC(=O)[C@@H]1CCCN1)c1[nH]nc(-c2ccc(F)cc2)c1-c1ccncc1`, the inhibition is 47%.

In turn, `COc1ccc(NC(=O)NCc2[nH]nc(-c3ccc(F)cc3)c2-c2ccncc2)cc1` returned an inhibition of 31%.

Compound `C[C@@H](NS(=O)(=O)c1ccc(CNC(=O)c2ccccc2)s1)c1[nH]nc(-c2ccc(F)cc2)c1-c1ccncc1` gave an inhibition of 88%.
